Entries after “also recorded” stand apart in the source; their conditions may differ.
Assays:
[1] = tested on: human bronchial epithelial cells; experiment: chemokine production from human bronchial epithelial cells; assay type: cell-based
LPS-induced TNFα = experiment: acute model of endotoxin-induced inflammation in rats; assay type: in vivo, rat; details: administered orally
[2] = renal excretion of PF-06650833; details: in vivo
hsCRP = hsCRP in healthy adults; assay type: in vivo, human
[3] = tested on: imiquimod (a TLR7 agonist)-induced skin inflammation; experiment: 5-day murine model of imiquimod-induced skin inflammation; assay type: in vivo; details: 5-day murine imiquimod model
[4] = tested on: moderately to severely active RA; experiment: 12-week study in patients with moderately to severely active RA; assay type: in vivo, human; details: doses of 200 and 400 mg as modified release (MR) tablets
[5] = tested on: collagen-induced arthritis; experiment: rat collagen-induced arthritis model; assay type: in vivo
[6] = tested on: blood transcriptional programs for type I interferons and IL-6; experiment: blood transcriptional programs in healthy volunteers and RA patients; assay type: in vivo, human
inflammatory monocytes = experiment: levels of inflammatory monocytes; design: species or system human; details: in vivo
C-reactive protein (CRP) = experiment: expected reduction in CRP (exposure response model); assay type: in vivo, human
IL-6/STAT3 signaling = experiment: in-vitro IL-6/STAT3 signaling; assay type: cell-based; details: both at 5 and 10 mg
IL-6 = experiment: expected suppression of IL-6 at clinical tofacitinib doses; assay type: in vivo, human
[7] = tested on: IFNα, IFNβ, IFNγ, TNFα, IL-1, IL-2, IL4, IL-6, IL-7, IL-9, IL-10, IL-12, IL13, IL-15, IL-21, IL-23, and IL-27; details: cited from earlier work

SMILES	chemokine production, IL-1β-stimulated release of CXCL8 and IL-6 [1]	LPS-induced TNFα (LPS-induced TNFα)	renal excretion [2]	levels of hsCRP (hsCRP)	ear swelling [3]	efficacy in 12-week study in RA patients [4]	hind paw swelling [5]	blood transcriptional programs for type I interferons and IL-6 [6]	levels of inflammatory monocytes (inflammatory monocytes)	reduction in CRP (C-reactive protein (CRP); 200 mg IR suspension Q6H)	reduction in CRP (C-reactive protein (CRP); 400 mg MR tablets QD (or 200 mg IR suspension Q6H))	IL-6/STAT3 signaling (IL-6/STAT3 signaling)	predicted suppression of IL-6 (IL-6; 5 mg BID dose)	suppression of IL-6 (IL-6; 10 mg BID dose, may be expected)	levels of IFNα, IFNβ, IFNγ, TNFα, IL-1, IL-2, IL4, IL-6, IL-7, IL-9, IL-10, IL-12, IL13, IL-15, IL-21, IL-23, and IL-27 [7]
CC[C@@H]1[C@H](F)C(=O)N[C@@H]1COc1nccc2cc(C(N)=O)c(OC)cc12 [PF-06650833, 1-(((2S,3S,4S)-3-Ethyl-4-fluoro-5-oxopyrrolidin-2-yl)methoxy)-7-methoxyisoquinoline-6-carboxamide]	reduces	inhibit LPS-induced TNFα in a dose-dependent manner	low	suppression of CRP; also recorded: dose-dependently reduced	inhibit ear swelling in a dose-dependent manner	demonstrated efficacy	significantly reduced	dose-dependently inhibits	reduces levels	50-60%	50-60%				
C[C@@H]1CCN(C(=O)CC#N)C[C@@H]1N(C)c1ncnc2[nH]ccc12 [tofacitinib, 3-((3R,4R)-4-Methyl-3-(methyl(7H-pyrrolo[2,3-d]pyrimidin-4-yl)amino)piperidin-1-yl)-3-oxopropanenitrile]												inhibits	approximately 60%	approximately 80%	reduces levels

From patent publication US20230149407A1, “Methods of Treating Coronavirus Disease 2019” (priority 2020, published 2023)
